Measured values: the NIST ThermoML archive (doi:10.1021/je060271a)

Details: 323.15 K, Liquid, Vibrating tube method

CCCCCCC(=O)OCC(COC(=O)CCCCCC)(COC(=O)CCCCCC)COC(=O)CCCCCC [pentaerythritol tetraheptanoate]
Details | mass density [kg/m3]
102 kPa | 955.7
102.5 kPa | 955.6
102.8 kPa | 955.6
103.5 kPa | 955.7
104.8 kPa | 955.6
106.8 kPa | 955.7
109.1 kPa | 955.7
113.5 kPa | 955.6
119 kPa | 955.5
127.2 kPa | 955.7
130.7 kPa | 955.6
133.3 kPa | 955.7
136.2 kPa | 955.6
136.9 kPa | 955.6
138 kPa | 955.7
138.5 kPa | 955.6
139.2 kPa | 955.7
139.5 kPa | 955.6
140.6 kPa | 955.6
144.4 kPa | 955.7
144.9 kPa | 955.7
145.8 kPa | 955.6
147.5 kPa | 955.7
152.7 kPa | 955.6
153.6 kPa | 955.7
154.3 kPa | 955.6
155.5 kPa | 955.8
156.6 kPa | 955.8
157.4 kPa | 955.7
158.7 kPa | 955.7
159.7 kPa | 955.7
161.8 kPa | 955.7
163.2 kPa | 955.6
164.2 kPa | 955.7
165.3 kPa | 955.8
166.8 kPa | 955.6
168 kPa | 955.8
169.3 kPa | 955.7
170.8 kPa | 955.7
172 kPa | 955.6
173.3 kPa | 955.7
175 kPa | 955.8
176.4 kPa | 955.7
177.9 kPa | 955.7
179.7 kPa | 955.6
181.2 kPa | 955.7
182.8 kPa | 955.8
184.6 kPa | 955.9
186.5 kPa | 955.7
188 kPa | 955.7
190.1 kPa | 955.7
193.9 kPa | 955.7
196.2 kPa | 955.6
241.4 kPa | 955.7
245.4 kPa | 955.7
265.6 kPa | 955.7
319.3 kPa | 955.8
340.6 kPa | 955.9
347.8 kPa | 955.9
364.8 kPa | 955.8
373.5 kPa | 955.8
449.4 kPa | 955.8
461.8 kPa | 955.9
492.2 kPa | 955.9
510.3 kPa | 955.9
526.4 kPa | 955.8
543.6 kPa | 956
565.9 kPa | 955.9
711.1 kPa | 955.8
779.6 kPa | 956.2
814.3 kPa | 956.1
1089.1 kPa | 956.3
1094 kPa | 956.3
1098.2 kPa | 956.3
1102.3 kPa | 956.3
1107 kPa | 956.4
1111.5 kPa | 956.4
1115.9 kPa | 956.4
1120.4 kPa | 956.4
1125.8 kPa | 956.5
1130.3 kPa | 956.4
1134.8 kPa | 956.4
1139 kPa | 956.5
1144.5 kPa | 956.3
1149 kPa | 956.4
1153.9 kPa | 956.4
1159.3 kPa | 956.3
1168.5 kPa | 956.5
1178.6 kPa | 956.4
1183.8 kPa | 956.5
1189 kPa | 956.4
1195.1 kPa | 956.5
1199.8 kPa | 956.4
1204.6 kPa | 956.4
1209.5 kPa | 956.5
1220.6 kPa | 956.5
1225.4 kPa | 956.4
1231.5 kPa | 956.5
1236.9 kPa | 956.4
1242.6 kPa | 956.5
1253.4 kPa | 956.3
1258.4 kPa | 956.6
1263.5 kPa | 956.3
1275.6 kPa | 956.5
1281.2 kPa | 956.4
1286.7 kPa | 956.4
1293.2 kPa | 956.5
1298.9 kPa | 956.4
1304.6 kPa | 956.7
1311.6 kPa | 956.5
1317.3 kPa | 956.6
1323 kPa | 956.5
1328.9 kPa | 956.5
1421.1 kPa | 956.7
1427.4 kPa | 956.6
1434.2 kPa | 956.7
1442 kPa | 956.6
1448.9 kPa | 956.6
1457.1 kPa | 956.6
1463.5 kPa | 956.7
1470.3 kPa | 956.7
1477.4 kPa | 956.6
1485.6 kPa | 956.6
1492.5 kPa | 956.6
1499.8 kPa | 956.7
1507.4 kPa | 956.7
1523.2 kPa | 956.6
1619.7 kPa | 956.8
1629.6 kPa | 956.7
1719.4 kPa | 956.9
1728.2 kPa | 956.8
1736.9 kPa | 956.8
1745.9 kPa | 956.8
1775.6 kPa | 956.9
2116.8 kPa | 957.1
2152.2 kPa | 957.1
2381.2 kPa | 957.2
2470.4 kPa | 957.3
2492.4 kPa | 957.2
2508.4 kPa | 957.3
2527.1 kPa | 957.3
2559.7 kPa | 957.3
3115.5 kPa | 957.7
3137.8 kPa | 957.7
3159 kPa | 957.8
3207.3 kPa | 957.8
3229.7 kPa | 957.7
3644.1 kPa | 958
3670.9 kPa | 958.1
3703.5 kPa | 958.2
3731.4 kPa | 958.2
3759.3 kPa | 958.1
3792.9 kPa | 958.3
3822.5 kPa | 958.2
3850.4 kPa | 958.2
3884.5 kPa | 958.2
3913.6 kPa | 958.2
3943.3 kPa | 958.4
4059.8 kPa | 958.5
4061.6 kPa | 958.4
4063.3 kPa | 958.4
8709 kPa | 961.5
8730.4 kPa | 961.5
8752.3 kPa | 961.6
8778.6 kPa | 961.5
8802.6 kPa | 961.5
8824.6 kPa | 961.6
8846.3 kPa | 961.7
8868.4 kPa | 961.6
8895.1 kPa | 961.7
8917.5 kPa | 961.5
8944.2 kPa | 961.7
8967 kPa | 961.7
8990.1 kPa | 961.6
9017.1 kPa | 961.7
9040.1 kPa | 961.7
9063.7 kPa | 961.7
9091.6 kPa | 961.8
9116.3 kPa | 961.8
9139.9 kPa | 961.8
9164 kPa | 961.8
9192.5 kPa | 961.9
9216.2 kPa | 961.8
9269.5 kPa | 962
9293.8 kPa | 961.9
9318.4 kPa | 962
9348.8 kPa | 961.9
9373.9 kPa | 961.9
9399.6 kPa | 962
9431.8 kPa | 962.1
9459.4 kPa | 962.1
9492.7 kPa | 962.1
9518.2 kPa | 962
9535.7 kPa | 962
9548.7 kPa | 962.2
9563.6 kPa | 962.2
9576.4 kPa | 962.1
9591.9 kPa | 962.1
9617.9 kPa | 962
9633.3 kPa | 961.9
9646.7 kPa | 962.2
9660.3 kPa | 962.1
9673.6 kPa | 962.1
9689.4 kPa | 962.3
9702.7 kPa | 962.2
9716.1 kPa | 962.2
9732.2 kPa | 962.1
9788.5 kPa | 962.2
9802.3 kPa | 962.3
9818.5 kPa | 962.2
9832.1 kPa | 962.3
9845.9 kPa | 962.3
9862.6 kPa | 962.3
9876.5 kPa | 962.3
9890.5 kPa | 962.4
9906.8 kPa | 962.3
9920.8 kPa | 962.3
9951.3 kPa | 962.3
10010 kPa | 962.4
10071 kPa | 962.3
10088 kPa | 962.5
10103 kPa | 962.5
10117 kPa | 962.4
